Assay results published in patent US11319322B2, “Substituted aryl ether compound, preparation method thereof, pharmaceutical composition and use thereof” (Xiamen University, priority 2017, dated 2022).

Tests used:
Type in all cases: cell-based
CCDC6-RET-BaF3 = molecular target: T1, CCDC6-RET-BaF3 (Homo sapiens, UniProt P07949); assay: Growth inhibition of CCDC6-RET-BaF3 cells stably transfected with kinase (MTS); details: 48 h, read-out: CCDC6-RET (IC50/nM)
T1 construct: fused on or other part: Q16204 (Coiled-coil domain-containing protein 6)
T1 sequence (P07949 whole entry, change not shown, the tested form may be a part): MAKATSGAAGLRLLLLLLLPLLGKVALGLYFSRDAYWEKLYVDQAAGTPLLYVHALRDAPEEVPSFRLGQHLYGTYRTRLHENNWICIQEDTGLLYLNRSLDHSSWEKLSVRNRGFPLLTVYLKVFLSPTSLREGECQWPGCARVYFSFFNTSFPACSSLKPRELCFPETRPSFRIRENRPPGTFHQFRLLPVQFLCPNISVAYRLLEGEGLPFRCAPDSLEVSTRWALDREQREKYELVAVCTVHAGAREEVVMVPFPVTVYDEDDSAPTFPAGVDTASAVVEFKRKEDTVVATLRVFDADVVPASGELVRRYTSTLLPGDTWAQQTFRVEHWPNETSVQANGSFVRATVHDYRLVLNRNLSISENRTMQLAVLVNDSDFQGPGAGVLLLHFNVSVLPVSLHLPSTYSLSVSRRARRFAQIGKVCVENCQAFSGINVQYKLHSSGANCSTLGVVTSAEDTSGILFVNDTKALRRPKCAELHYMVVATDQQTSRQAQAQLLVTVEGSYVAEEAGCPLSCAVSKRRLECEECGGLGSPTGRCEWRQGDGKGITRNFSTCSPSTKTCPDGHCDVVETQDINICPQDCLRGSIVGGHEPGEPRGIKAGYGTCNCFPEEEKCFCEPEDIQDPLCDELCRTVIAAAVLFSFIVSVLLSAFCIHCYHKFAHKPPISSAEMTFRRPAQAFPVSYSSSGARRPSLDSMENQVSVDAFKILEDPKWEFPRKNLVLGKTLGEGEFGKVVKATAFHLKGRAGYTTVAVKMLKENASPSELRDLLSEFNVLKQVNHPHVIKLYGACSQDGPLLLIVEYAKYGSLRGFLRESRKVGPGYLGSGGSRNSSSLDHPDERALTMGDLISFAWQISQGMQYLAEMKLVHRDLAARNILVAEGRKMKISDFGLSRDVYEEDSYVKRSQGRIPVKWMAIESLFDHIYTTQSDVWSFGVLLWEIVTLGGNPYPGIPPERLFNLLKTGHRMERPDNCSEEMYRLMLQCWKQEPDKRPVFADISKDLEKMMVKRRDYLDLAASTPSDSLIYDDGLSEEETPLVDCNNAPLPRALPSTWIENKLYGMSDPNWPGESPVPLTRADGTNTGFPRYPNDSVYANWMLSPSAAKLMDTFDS
Outline: (§1)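 BaF3 cells stably expressing CCDC6-RET or KIF5B-RET, or parental BaF3, 2×10^4 cells/well, treated 48 h at 37 °C with 8-point 1:3 dilutions from 10 μM (0.1% DMSO). MTS/PES added 1–4 h, OD490 read; inhibition versus DMSO and blank gave IC50.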

KIF5B-RET-BaF3 = molecular target: T2, KIF5B-RET-BaF3 (Homo sapiens, UniProt P07949); assay: Growth inhibition of KIF5B-RET-BaF3 cells stably transfected with kinase (MTS); details: 48 h, read-out: KIF5B-RET (IC50/nM)
T2 construct: fused on or other part: P33176 (Kinesin-1 heavy chain)
T2 sequence (P07949 whole entry, change not shown, the tested form may be a part): as above
Outline: as §1

LC-2/AD cells = assay: Growth inhibition of RET-positive non-small cell lung cancer cells LC-2/AD (MTS); details: Homo sapiens, LC-2/AD non-small cell lung cancer cells, 48 h
Description: Growth inhibitory activity of compounds on kinase RET-positive non-small cell lung cancer cells LC-2/AD
The specific test method is given as follows:
1) Medium: DMEM (Dulbecco's modified eagle medium) or RPMI 1640 (containing 10% fetal bovine serum, 100 μg/mL ampicillin, 100 μg/mL streptomycin).
2) Reagents: MTS reaction solution (containing 2 mg/mL of MTS [3-(4,5-dimethylthiazol-2-yl)-5-(3-carboxymethoxyphenyl)-2-(4-sulfophenyl)-2H-tetrazolium, inner Salt]; 100 μg/mL PES (phenazine […])).
3) Compound test: LC-2/AD cells (2×10^4 cells/well) were incubated into a 96-well culture plate, the volume of cell culture fluid was 90 μL, and then 10 μL of the compound at each gradient concentration was added (the highest concentration was 10 μM, which was diluted stepwise by ⅓, and 8 concentration points were set in total; the system contained 0.1% DMSO (dimethyl sulfoxide)). The cell plate with uniformly mixed compound was cultured in a cell culture incubator (37° C.; 5% CO2) for 48 h, then 20 μL of MTS reaction solution was added, uniformly mixed and incubated in the cell culture incubator (37° C.; 5% CO2) for 1-4 hr; OD values at 490 nm were measured by a microplate reader (VARIOSKAN FLASH, Thermo). Three parallels were set in each group of experiments, with 0.1% (a final concentration) DMSO as a negative control, and a medium without cells or compounds as a blank control. The cell growth inhibition rate was calculated by the following formula: Cell growth inhibition rate %=1−(ODexperimental group−ODblank group)/(ODnegative group−ODblank group)×100%
4) IC50 calculation: The semi-inhibitory concentration of the compound acting on cell growth was calculated using GradPad Prism 5 software according to the measured cell growth inhibition rate.

wild-type BaF3 = assay: Growth inhibition of wild-type BaF3 cells, broad-spectrum toxicity (MTS); details: Mus musculus, 48 h, read-out: WT Ba/F3 (IC50/nM)
Outline: as §1

| Compound | GI50 (CCDC6-RET-BaF3) | GI50 (KIF5B-RET-BaF3) | IC50 (LC-2/AD cells) | IC50 (wild-type BaF3) |
| --- | --- | --- | --- | --- |
| COc1cc2nccc(Oc3ccc(NC(=O)C4(C(=O)Nc5ccc(F)cc5)CC4)cc3)c2cc1OC [Cabozantinib] | 226 nM | 302 nM | 4150 nM |  |
| Cc1ccc(Oc2nc(-c3ccncc3)nc3c2ncn3C)cc1C(=O)Nc1ccc(CN2CCN(C)CC2)c(C(F)(F)F)c1 [I-n-3] | 8.38 nM | 40.5 nM | 818 nM |  |
| Cc1ccc(C(=O)Nc2ccc(CN3CCN(C)CC3)c(C(F)(F)F)c2)cc1Oc1nc(-c2cccnc2)nc2c1cnn2C [II-m-1] | 35.2 nM | 8.28 nM | 301 nM |  |
| Cc1ccc(Oc2nc(-c3cccnc3)nc3ccn(C)c23)cc1C(=O)Nc1cc(CN2CCN(C)CC2)cc(C(F)(F)F)c1 [III-r-3] | 3770 nM | 2720 nM |  | 3650 nM |
| Cc1ccc(Oc2nc(-c3ccncc3)nc3ccn(C)c23)cc1C(=O)Nc1cc(CN2CCN(C)CC2)cc(C(F)(F)F)c1 [III-r-4] | 187 nM | 325 nM |  | 1380 nM |
| CN1CCN(Cc2ccc(NC(=O)c3cc(Oc4nc(-c5ccncc5)nc5ccn(C)c45)ccc3-c3ccncc3)cc2C(F)(F)F)CC1 [III-v-1] | 431 nM | 835 nM |  | > 10000 nM |
| Cc1ccc(C(=O)Nc2cccc(C(F)(F)F)c2)cc1Oc1nc(-c2ccncc2)nc2nn(C)cc12 [IV-e-2] | 2910 nM | 8450 nM |  | 2220 nM |
| Cc1ccc(Oc2nc(-c3ccncc3)nc3nn(C)cc23)cc1C(=O)Nc1ccc(CN2CCN(C)CC2)c(C(F)(F)F)c1 [IV-n-2] | 172 nM | 173 nM | 1400 nM |  |
| CN1CCN(Cc2ccc(NC(=O)c3cccc(Oc4cc(-c5cccnc5)nc5[nH]ccc45)c3)cc2C(F)(F)F)CC1 [V-I-1] | 1460 nM | 1460 nM |  | 2070 nM |
| CN1CCN(Cc2ccc(NC(=O)c3cccc(Oc4cc(-c5ccncc5)nc5[nH]ccc45)c3)cc2C(F)(F)F)CC1 [V-I-2] | 169 nM | 169 nM |  | 3400 nM |
| CN1CCN(Cc2ccc(NC(=O)c3cccc(Oc4cc(-c5cccnc5)nc5c4ccn5C)c3)cc2C(F)(F)F)CC1 [V-I-3] | 587 nM | 595 nM |  | 1240 nM |
| CN1CCN(Cc2ccc(NC(=O)c3cccc(Oc4cc(-c5ccncc5)nc5c4ccn5C)c3)cc2C(F)(F)F)CC1 [V-I-4] | 337 nM | 143 nM |  | 1420 nM |
| Cc1ccc(C(=O)Nc2ccc(CN3CCN(C)CC3)c(C(F)(F)F)c2)cc1Oc1cc(-c2cccnc2)nc2[nH]ccc12 [V-m-1] | 1020 nM | 473 nM |  | 1380 nM |
| Cc1ccc(C(=O)Nc2ccc(CN3CCN(C)CC3)c(C(F)(F)F)c2)cc1Oc1cc(-c2ccncc2)nc2[nH]ccc12 [V-m-2] | 1350 nM | 978 nM |  | 905 nM |
| Cc1ccc(C(=O)Nc2ccc(CN3CCN(C)CC3)c(C(F)(F)F)c2)cc1Oc1cc(-c2cccnc2)nc2c1ccn2C [V-m-3] | 1170 nM | 613 nM |  | 3370 nM |
| Cc1ccc(C(=O)Nc2ccc(CN3CCN(C)CC3)c(C(F)(F)F)c2)cc1Oc1cc(-c2ccncc2)nc2c1ccn2C [V-m-4] | 1240 nM | 811 nM |  | 1420 nM |
| Cc1ccc(Oc2cc(-c3cccnc3)nc3[nH]ccc23)cc1C(=O)Nc1ccc(CN2CCN(C)CC2)c(C(F)(F)F)c1 [V-n-1] | 2900 nM | 2120 nM |  | 2310 nM |
| Cc1ccc(Oc2cc(-c3ccncc3)nc3[nH]ccc23)cc1C(=O)Nc1ccc(CN2CCN(C)CC2)c(C(F)(F)F)c1 [V-n-2] | 580 nM | 616 nM |  | 2070 nM |
| CN1CCN(Cc2ccc(C(=O)Nc3cccc(Oc4nc(-c5ccncc5)nc5ccsc45)c3)cc2C(F)(F)F)CC1 [VI-h-2] | 561 nM | 493 nM |  | 3900 nM |
| Cc1ccc(NC(=O)c2ccc(CN3CCN(C)CC3)c(C(F)(F)F)c2)cc1Oc1nc(-c2cccnc2)nc2ccsc12 [VI-i-1] | 1950 nM | 1470 nM |  | 1530 nM |
| Cc1ccc(Oc2nc(-c3cccnc3)nc3ccsc23)cc1NC(=O)c1ccc(CN2CCN(C)CC2)c(C(F)(F)F)c1 [VI-j-1] | 2700 nM | 3960 nM |  | 3380 nM |
| Cc1ccc(Oc2nc(-c3ccncc3)nc3ccsc23)cc1NC(=O)c1ccc(CN2CCN(C)CC2)c(C(F)(F)F)c1 [VI-j-2] | 3.08 nM | 17 nM |  | 3940 nM |
| CN1CCN(Cc2ccc(NC(=O)c3cccc(Oc4nc(-c5cccnc5)nc5ccsc45)c3)cc2C(F)(F)F)CC1 [VI-l-1] | 2640 nM | 3220 nM |  | 4620 nM |
| Cc1ccc(Oc2nc(-c3cccnc3)nc3ccsc23)cc1C(=O)Nc1ccc(CN2CCN(C)CC2)c(C(F)(F)F)c1 [VI-n-1] | 3240 nM | 2840 nM |  | 4190 nM |
| CN1CCN(Cc2ccc(NC(=O)c3cc(Oc4nc(-c5cccnc5)nc5ccsc45)ccc3Cl)cc2C(F)(F)F)CC1 [VI-o-1] | 2170 nM | 2870 nM |  | 3990 nM |
| Cc1ccc(C(=O)Nc2cc(CN3CCN(C)CC3)cc(C(F)(F)F)c2)cc1Oc1nc(-c2cccnc2)nc2ccsc12 [VI-q-1] | 3570 nM | 3430 nM |  | 4360 nM |
| Cc1ccc(C(=O)Nc2cc(CN3CCN(C)CC3)cc(C(F)(F)F)c2)cc1Oc1nc(-c2ccncc2)nc2ccsc12 [VI-q-2] | 1520 nM | 1470 nM |  | 1520 nM |
